Experimental data reported in ChEMBL document CHEMBL2073765, “Disrupted bile acid homeostasis reveals an unexpected interaction among nuclear hormone receptors, transporters, and cytochrome P450” (J Biol Chem, 2001).

Biological target: Bile salt export pump (Homo sapiens, UniProt O95342)
Assay: TP_TRANSPORTER: Western in vitro, primary human hepatocyte
Assay type: functional, cell-based
Details: hepatocytes

Bile salt export pump, sequence (O95342 whole entry): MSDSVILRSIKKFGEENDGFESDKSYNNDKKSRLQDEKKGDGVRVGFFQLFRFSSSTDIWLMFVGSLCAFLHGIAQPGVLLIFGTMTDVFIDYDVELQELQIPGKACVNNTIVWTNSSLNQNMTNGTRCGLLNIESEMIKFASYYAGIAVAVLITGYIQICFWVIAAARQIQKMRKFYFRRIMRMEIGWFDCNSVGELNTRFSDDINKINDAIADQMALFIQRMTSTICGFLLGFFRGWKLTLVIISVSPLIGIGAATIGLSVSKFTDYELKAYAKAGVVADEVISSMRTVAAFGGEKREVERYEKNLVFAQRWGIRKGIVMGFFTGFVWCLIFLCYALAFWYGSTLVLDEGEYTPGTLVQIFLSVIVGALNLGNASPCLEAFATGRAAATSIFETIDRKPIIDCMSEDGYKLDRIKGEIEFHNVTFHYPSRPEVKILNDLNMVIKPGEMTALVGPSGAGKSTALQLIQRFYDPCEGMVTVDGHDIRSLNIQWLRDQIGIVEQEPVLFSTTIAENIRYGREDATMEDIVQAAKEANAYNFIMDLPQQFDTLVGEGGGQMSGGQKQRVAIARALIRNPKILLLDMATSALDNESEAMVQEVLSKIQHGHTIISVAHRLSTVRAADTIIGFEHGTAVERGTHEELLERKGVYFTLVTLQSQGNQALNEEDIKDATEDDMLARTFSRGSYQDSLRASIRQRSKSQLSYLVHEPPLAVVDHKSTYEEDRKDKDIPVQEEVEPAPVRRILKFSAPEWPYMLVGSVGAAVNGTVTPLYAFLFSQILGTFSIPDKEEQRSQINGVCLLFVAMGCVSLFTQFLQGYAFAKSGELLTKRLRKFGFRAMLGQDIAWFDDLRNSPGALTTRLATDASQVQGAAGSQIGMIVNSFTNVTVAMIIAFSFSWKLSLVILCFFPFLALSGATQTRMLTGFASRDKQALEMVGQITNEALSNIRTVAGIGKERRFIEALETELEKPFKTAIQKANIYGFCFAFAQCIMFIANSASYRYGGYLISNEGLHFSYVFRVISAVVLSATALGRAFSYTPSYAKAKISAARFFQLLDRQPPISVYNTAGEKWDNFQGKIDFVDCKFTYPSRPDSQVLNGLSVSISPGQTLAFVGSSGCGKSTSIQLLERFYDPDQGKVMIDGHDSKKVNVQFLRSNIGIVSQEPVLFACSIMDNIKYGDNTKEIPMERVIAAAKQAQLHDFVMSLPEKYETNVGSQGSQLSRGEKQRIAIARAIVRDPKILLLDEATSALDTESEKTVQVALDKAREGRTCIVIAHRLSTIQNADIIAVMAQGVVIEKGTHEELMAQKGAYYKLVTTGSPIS

SMILES: C[C@H](CCC(=O)O)[C@H]1CC[C@H]2[C@@H]3[C@H](O)C[C@@H]4C[C@H](O)CC[C@]4(C)[C@H]3CC[C@]12C [CHENODIOL]
- Activity: inducer [+]

SMILES: C[C@H](CCC(=O)O)[C@H]1CC[C@H]2[C@@H]3CC[C@@H]4C[C@H](O)CC[C@]4(C)[C@H]3C[C@H](O)[C@]12C [DEOXYCHOLIC ACID]
- Activity: inducer [+]
